Among the data in patent US8507478B2, “Oxazolidinyl antibiotics” (Actelion Pharmaceuticals Ltd., priority 2008, dated 2013) are MIC values, retold here.

Values after ≈ are worked out from the molar mass of the structure shown.

This assay deals with M. catarrhalis A894. The experiment in a line: MIC determination by microdilution in cation-adjusted Mueller-Hinton Broth. It is filed as cell-based. Particulars: Moraxella catarrhalis, microdilution method, CLSI M7-A7. Here is the method:
Minimal inhibitory concentrations (MICs; mg/l) were determined in cation-adjusted Mueller-Hinton Broth by a microdilution method following the description given in “Methods for Dilution Antimicrobial Susceptibility Tests for Bacteria that Grow Aerobically”, Approved standard, 7th ed., Clinical and Laboratory Standards Institute (CLSI) Document M7-A7, Wayne, Pa., USA, 2006. All Example compounds were tested against several Gram positive and Gram negative bacteria such as S. aureus, E. faecalis, S. pneumoniae, M catarrhalis, A. baumanii, E.coli or P. aeruginosa.
(In general: Broth dilution looks for growth in wells or tubes with falling amounts of substance.)
As usually defined, the MIC is the least concentration at which growth counts as inhibited. Low values mean greater potency, high ones weaker potency. Regarding `COc1ccc2ncc(=O)n(CC3CN(C[C@@H]4CN(c5ccc6c(c5)NC(=O)CS6)C(=O)O4)C3)c2c1` [Example 4, 6-{(R)-5-[3-(7-methoxy-2-oxo-2H-quinoxalin-1-ylmethyl)-azetidin-1-ylmethyl]-2-oxo-oxazolidin-3-yl}-4H-benzo[1,4]thiazin-3-one], the MIC was not above 0.031 µg/mL. To `COc1ccc2c(c1)N(CC1CN(C[C@H]3CN(c4ccc5c(c4)NC(=O)CS5)C(=O)O3)C1)C(=O)CC2` [Example 11, 6-{(S)-5-[3-(7-methoxy-2-oxo-3,4-dihydro-2H-quinolin-1-ylmethyl)azetidin-1-ylmethyl]-2-oxo-oxazolidin-3-yl}-4H-benzo[1,4]thiazin-3-one] belongs not above 0.031 µg/mL. To `COc1ccc2ncc(=O)n(CC3CN(C[C@@H]4CN(c5ccc6c(c5)NC(=O)CO6)C(=O)O4)C3)c2c1` [Example 13, 6-{(R)-5-[3-(7-methoxy-2-oxo-2H-quinoxalin-1-ylmethyl)-azetidin-1-ylmethyl]-2-oxo-oxazolidin-3-yl}-4H-benzo[1,4]oxazin-3-one] belongs not above 0.031 µg/mL; to `COc1ccc2ncc(=O)n(C3CCN(C[C@@H]4CN(c5ccc6c(c5)NC(=O)CO6)C(=O)O4)CC3)c2n1` [Example 16, 6-methoxy-4-{1-[(R)-2-oxo-3-(3-oxo-3,4-dihydro-2H-benzo[1,4]oxazin-6-yl)-oxazolidin-5-ylmethyl]-piperidin-4-yl}-4H-pyrido[2,3-b]pyrazin-3-one], not above 0.031 µg/mL; to `COc1ccc2ccc(=O)n(CC3(O)CCN(C[C@H]4CN(c5ccc6c(c5)NC(=O)CS6)C(=O)O4)C3)c2c1` (mixture of isomers) [Example 19, 6-{(S)-5-[(RS)-3-hydroxy-3-(7-methoxy-2-oxo-2H-quinolin-1-ylmethyl)pyrrolidin-1-ylmethyl]-2-oxo-oxazolidin-3-yl}-4H-benzo[1,4]thiazin-3-one], not above 0.031 µg/mL. Regarding `COc1ccc2ccc(=O)n(C[C@@H]3CCN(C[C@@H]4CN(c5ccc6c(c5)NC(=O)CS6)C(=O)O4)C3)c2c1` [Example 17, 6-{(R)-5-[(R)-3-(7-methoxy-2-oxo-2H-quinolin-1-ylmethyl)-pyrrolidin-1-ylmethyl]-2-oxo-oxazolidin-3-yl}-4H-benzo[1,4]thiazin-3-one], the MIC is not above 0.031 µg/mL. To `COc1ccc2ccc(=O)n(CC3CCN(C[C@@H]4CN(c5ccc(C)c(F)c5)C(=O)O4)CC3)c2c1` [Example 9, 1-{1-[(R)-3-(3-fluoro-4-methyl-phenyl)-2-oxo-oxazolidin-5-ylmethyl]-piperidin-4-ylmethyl}-7-methoxy-1H-quinolin-2-one] belongs 1 µg/mL (≈ 2.09 µM); to `COc1ccc2ccc(=O)n(CC3CN(C[C@@H]4CN(c5ccc6c(c5)NC(=O)CS6)C(=O)O4)C3)c2c1` [Example 2, 6-{(R)-5-[3-(7-methoxy-2-oxo-2H-quinolin-1-ylmethyl)-azetidin-1-ylmethyl]-2-oxo-oxazolidin-3-yl}-4H-benzo[1,4]thiazin-3-one], not above 0.031 µg/mL; to `COc1ccc2ncc(=O)n(C3CCN(CC[C@H]4CN(c5ccc6c(c5)NC(=O)CS6)C(=O)O4)CC3)c2n1` [Example 23, 6-methoxy-4-(1-{2-[(S)-2-oxo-3-(3-oxo-3,4-dihydro-2H-benzo[1,4]thiazin-6-yl)-oxazolidin-5-yl]-ethyl}-piperidin-4-yl)-4H-pyrido[2,3-b]pyrazin-3-one], not above 0.031 µg/mL. With `COc1ccc2ncc(=O)n(C3CCN(C[C@@H]4CN(c5ccc6c(c5)NC(=O)CS6)C(=O)O4)CC3)c2n1` [Example 15, 6-methoxy-4-[1-{(R)-2-oxo-3-(3-oxo-3,4-dihydro-2H-benzo[1,4]thiazin-6-yl)-oxazolidin-5-ylmethyl]-piperidin-4-yl}-4H-pyrido[2,3-b]pyrazin-3-one], the MIC is not above 0.031 µg/mL. Regarding `COc1ccc2ccc(=O)n(CC3(O)CN(C[C@@H]4CN(c5ccc6c(c5)NC(=O)CS6)C(=O)O4)C3)c2c1` [Example 1, 6-{(R)-5-[3-hydroxy-3-(7-methoxy-2-oxo-2H-quinolin-1-ylmethyl)azetidin-1-ylmethyl]-2-oxo-oxazolidin-3-yl}-4H-benzo[1,4]thiazin-3-one], the MIC was not above 0.031 µg/mL. To `COc1ccc2ccc(=O)n(CC3CCN(C[C@@H]4CN(c5ccc6c(c5)NC(=O)CS6)C(=O)O4)CC3)c2c1` [Example 7, 6-{(R)-5-[4-(7-methoxy-2-oxo-2H-quinolin-1-ylmethyl)-piperidin-1-ylmethyl]-2-oxo-oxazolidin-3-yl}-4H-benzo[1,4]thiazin-3-one] belongs not above 0.031 µg/mL; to `COc1ccc2ncc(=O)n(CC3CN(CC[C@@H]4CN(c5ccc6c(c5)NC(=O)CS6)C(=O)O4)C3)c2c1` [Example 6, 6-((R)-5-{2-[3-(7-methoxy-2-oxo-2H-quinoxalin-1-ylmethyl)-azetidin-1-yl]-ethyl}-2-oxo-oxazolidin-3-yl)-4H-benzo[1,4]thiazin-3-one], not above 0.031 µg/mL. To `COc1ccc2ccc(=O)n(CC3(O)CCN(C[C@@H]4CN(c5ccc6c(c5)NC(=O)CS6)C(=O)O4)C3)c2c1` (mixture of isomers) [Example 18, 6-{(R)-5-[(RS)-3-hydroxy-3-(7-methoxy-2-oxo-2H-quinolin-1-ylmethyl)pyrrolidin-1-ylmethyl]-2-oxo-oxazolidin-3-yl}-4H-benzo[1,4]thiazin-3-one] belongs not above 0.031 µg/mL; to `COc1ccc2c(c1)N(CC1CN(C[C@@H]3CN(c4ccc5c(c4)NC(=O)CS5)C(=O)O3)C1)C(=O)CC2` [Example 10, 6-{(R)-5-[3-(7-methoxy-2-oxo-3,4-dihydro-2H-quinolin-1-ylmethyl)azetidin-1-ylmethyl]-2-oxo-oxazolidin-3-yl}-4H-benzo[1,4]thiazin-3-one], not above 0.031 µg/mL; to `COc1ccc2ccc(=O)n(CC3(O)CCN(CC[C@@H]4CN(c5ccc6c(c5)NC(=O)CS6)C(=O)O4)C3)c2c1` (mixture of isomers) [Example 21, 6-((R)-5-{2-[(RS)-3-hydroxy-3-(7-methoxy-2-oxo-2H-quinolin-1-ylmethyl)-pyrrolidin-1-yl]-ethyl}-2-oxo-oxazolidin-3-yl)-4H-benzo[1,4]thiazin-3-one], not above 0.031 µg/mL. With `COc1ccc2c(c1)N(CC1CN(C[C@@H]3CN(c4ccc5c(c4)NC(=O)CO5)C(=O)O3)C1)C(=O)CC2` [Example 12, 6-{(R)-5-[3-(7-methoxy-2-oxo-3,4-dihydro-2H-quinolin-1-ylmethyl)azetidin-1-ylmethyl]-2-oxo-oxazolidin-3-yl}-4H-benzo[1,4]oxazin-3-one], the lowest concentration to inhibit growth (MIC) was 0.5 µg/mL (≈ 1.02 µM). Consider `COc1ccc2ncc(=O)n(C3CCN(CC[C@@H]4CN(c5ccc6c(c5)NC(=O)CS6)C(=O)O4)CC3)c2n1` [Example 25, 6-methoxy-4-(1-{2-[(R)-2-oxo-3-(3-oxo-3,4-dihydro-2H-benzo[1,4]thiazin-6-yl)-oxazolidin-5-yl]-ethyl}-piperidin-4-yl)-4H-pyrido[2,3-b]pyrazin-3-one], for which the MIC is not above 0.031 µg/mL. `COc1ccc2ccc(=O)n(CC3CCN(C[C@@H]4CN(c5ccc6c(c5)OCCO6)C(=O)O4)CC3)c2c1` [Example 8, 1-{1-[(R)-3-(2,3-dihydro-benzo[1,4]dioxin-6-yl)-2-oxo-oxazolidin-5-ylmethyl]-piperidin-4-ylmethyl}-7-methoxy-1H-quinolin-2-one] had an MIC of 1 µg/mL (≈ 1.98 µM). To `COc1ccc2ccc(=O)n(CC3(O)CCN(CC[C@H]4CN(c5ccc6c(c5)NC(=O)CS6)C(=O)O4)C3)c2c1` (mixture of isomers) [Example 20, 6-((S)-5-{2-[(RS)-3-hydroxy-3-(7-methoxy-2-oxo-2H-quinolin-1-ylmethyl)-pyrrolidin-1-yl]-ethyl}-2-oxo-oxazolidin-3-yl)-4H-benzo[1,4]thiazin-3-one] belongs not above 0.031 µg/mL; to `COc1ccc2ccc(=O)n(CC3CN(CC[C@@H]4CN(c5ccc6c(c5)NC(=O)CS6)C(=O)O4)C3)c2c1` [Example 5, 6-((R)-5-{2-[3-(7-methoxy-2-oxo-2H-quinolin-1-ylmethyl)-azetidin-1-yl]-ethyl}-2-oxo-oxazolidin-3-yl)-4H-benzo[1,4]thiazin-3-one], not above 0.031 µg/mL; to `COc1ccc2ncc(=O)n(C3CCN(C[C@@H]4CN(c5ccc(C)c(F)c5)C(=O)O4)CC3)c2n1` [Example 24, 4-{1-[(R)-3-(3-fluoro-4-methyl-phenyl)-2-oxo-oxazolidin-5-ylmethyl]-piperidin-4-yl}-6-methoxy-4H-pyrido[2,3-b]pyrazin-3-one], not above 0.031 µg/mL. To `COc1ccc2ncc(=O)n(C3CCN(C[C@@H]4CN(c5ccc6c(c5)OCCO6)C(=O)O4)CC3)c2n1` [Example 22, 4-{1-[(R)-3-(2,3-dihydro-benzo[1,4]dioxin-6-yl)-2-oxo-oxazolidin-5-ylmethyl]-piperidin-4-yl}-6-methoxy-4H-pyrido[2,3-b]pyrazin-3-one] belongs not above 0.031 µg/mL; to `COc1ccc2ccc(=O)n(CC3CN(C[C@@H]4CN(c5ccc6c(c5)OCCO6)C(=O)O4)C3)c2c1` [Example 3, 1-{1-[(R)-3-(2,3-dihydro-benzo[1,4]dioxin-6-yl)-2-oxo-oxazolidin-5-ylmethyl]-azetidin-3-ylmethyl}-7-methoxy-1H-quinolin-2-one], 0.063 µg/mL (≈ 0.132 µM); to `COc1ccc2ncc(=O)n(CC3CN(C[C@@H]4CN(c5ccc6c(c5)OCCO6)C(=O)O4)C3)c2c1` [Example 14, 1-{1-[(R)-3-(2,3-dihydro-benzo[1,4]dioxin-6-yl)-2-oxo-oxazolidin-5-ylmethyl]-azetidin-3-ylmethyl}-7-methoxy-1H-quinoxalin-2-one], 0.25 µg/mL (≈ 0.522 µM).
